Values of other authors, collected in patent US20230000079A1, “COMBINATION COMPRISING A TRIKETONE HERBICIDE AND A DIPHENYLETHER HERBICIDE, AND A METHOD FOR MAKING AND USING THE COMBINATION” (Generic Crop Science LLC, priority 2021, published 2023).
Values after ≈ are worked out from the molar mass of the structure shown.

| Compound | water solubility (20° C.) | solubility in most organic solvents | solubility in water [µg/mL] |
| --- | --- | --- | --- |
| CS(=O)(=O)c1ccc(C(=O)C2C(=O)CCCC2=O)c([N+](=O)[O-])c1 [Mesotrione, 2-[4-(methylsulfonyl)-2-nitrobenzoyl]cyclohexane-1,3-dione] | 1,500 mg/L | – | – |
| CCOc1cc(Oc2ccc(C(F)(F)F)cc2Cl)ccc1[N+](=O)[O-] [Oxyfluorfen, 2-chloro-4-(trifluoromethyl)phenyl 3-ethoxy-4-nitrophenyl ether] | – | highly soluble | 0.1 (≈ 0.276 µM) |
